Laboratory results: patent publication US9421492B2, “Aminopyridine derivatives for removal of hydrogen sulfide from a gas mixture” (Dow Global Technologies LLC, priority 2011, dated 2016)

Experiment: Solubility in unbuffered water
Details: unbuffered de-ionized water, 25° C., average of three experiments
From the text: The experiment is repeated three times and the average solubilities are reported as weight percent (wt %) in Table 1.

Molecule | Solubility, wt % [wt %]
CN(C)c1ccncc1 [DMAP, 4-dimethylaminopyridine] | 8
1-hydroxyethyl-4-pyridynyl-pyperazine [HEPP] | 60
Cc1cc(N(C)C)cc(C)n1 [DMAPL, 2,6-dimethyl-4-(dimethylamino)pyridine] | 3
Cc1cc(N(C)C)ccn1 [DMAPP, 2-methyl-4-(dimethylamino)pyridine] | 5
